Reference: patent EP1003775B1, “HEPATITIS C INHIBITOR PEPTIDES” (BOEHRINGER INGELHEIM (CANADA) LTD., priority 1997, dated 2005)

Tested on: NS3 protease
Test: HCV NS3 protease inhibition (recombinant NS3 protease radiometric assays)
Assay type: biochemical, hepatitis C virus
Conditions: qualitative statement
Description: The substrate used for the HCV NS3 protease radiometric assay, DDIVPC-SMSYTW, is cleaved between the cysteine and the serine residues by the enzyme. The sequence DDIVPC-SMSYTW corresponds to the NS5A/NS5B natural cleavage site in which the cysteine residue in P2 has been substituted for a proline. The peptide substrate DDIVPC-SMSYTW and the tracer biotin-DDIVPC-SMS[^125I-Y]TW were incubated with the recombinant NS3 protease in the absence or in the presence of inhibitors. The separation of substrate from products was performed by adding avidin-coated agarose beads to the assay mixture followed by filtration. The amount of SMS [^125I-Y]TW product found in the filtrate (with or without inhibitor) allowed for the calculation of the percentage of substrate conversion and of the percentage of inhibition.
The assay was performed in a 96-well polypropylene plate. Each well contained: • 20 µL substrate/tracer in assay buffer; • 10 µL ± inhibitor in 20% DMSO/assay buffer; • 10 µL NS3 protease 1b. […]
The filtrates were counted on a Packard® TopCount instrument using a ^125I-liquid protocol for 1 minute. The %inhibition was calculated with the following equation: 100- [(countsinh -countsblank ) / (countsctl -countsblank ) x 100] […]
The value of IC50 was calculated in the same manner as in Example 19.

## Ac-DDIVPC-OH [Ac-D-D-I-V-P-C-OH]
  inhibition of the NS3 protease: inhibitory
